We go through nine compounds from US20150119373A1, “NOVEL BETULINIC ACID DERIVATIVES AS HIV INHIBITORS” (HETERO RESEARCH FOUNDATION, priority 2012, published 2015).

Read-outs that look alike come from different tables or passages of the source.

The nature of series [1]: Cyto-toxicity assay (MTT) in MT2 cells without virus. It counts as cell-based. To be noted: human. The procedure:
For cyto-toxicity assay the same amount of MT2 cells as in antiviral assay without virus was added to the 96 well plates. The cyto-toxicity was measured using MTT reagent in parallel with p24 estimation. The percent viability is calculated in comparison with vehicle control.

The nature of series [2]: Single dose oral pharmacokinetic study in mice. To be noted: for AUC(0-inf) / Cmax / Tmax / AUC(0-t): mouse, plasma. It counts as in vivo. The method, then: The test item was administered through oral route to animals (rat/mice) at 30 mg/kg dose in a suitable vehicle at 10 ml/kg dose volume. Blood samples (˜50 uL at each time point) were collected from retro-orbital plexus using K3 EDTA as anticoagulant in eppendorf tubes at defined time intervals under light ether anesthesia. The samples were centrifuged at 3500×g to separate plasma and stored at −80° C. until analysis.
Sample analysis: Test samples were analyzed using LC-MS-MS after developing fit-for-purpose method for each of test compound.

The next series has as its system HIV-1 strain 92HT599. Briefly: Antiviral activity: p24 estimation in MT2 cells infected with HIV-1 strain 92HT599. It counts as cell-based. To be noted: Human immunodeficiency virus 1, MT2 cells, HIV-1 92HT599, ~96 hours, p24; for inhibition at 0.1 µM: 100 nM, read-out: Antiviral activity % inhibition 100 nM; for inhibition at 1 µM: 1000 nM, read-out: Antiviral activity % inhibition 1000 nM. The procedure: MT2 cells were infected with HIV-1 strain 92HT599 (10 TCID 50/30000 cells). The infected cells were plated at the concentration of […] cells per well in 96 well plate. Test compound was added to the micro plate in defined format with the final concentration of DMSO (vehicle) is not more than 1%. Incubation was carried out in CO2 incubator for ˜96 hours for viral infection. At the end of incubation period an aliquot from each well was taken for p24 estimation. The quantitation of p24 is an index for antiviral activity of the compound. Percent inhibition was calculated with reference to control values (vehicle controls).
p-24 estimation was carried out using Advance biosciences kit as per the procedure detailed by supplier.

Setting [3] is: Oral PK @ 30 mg/ kg dose in mice (Table 6).
Setting [4] is: Oral PK @ 30 mg/ kg dose in mice (Table 6), read-out: AUCt.
Where [5] appears, read: Mice oral PK @30 mg/kg (Table 5).
[6] abbreviates: Mice oral PK @30 mg/kg (Table 5), read-out: AUC 0-t.

On to `C=C(C)[C@@H]1CC[C@]2(C(=O)N[C@@H]3C[C@H](c4nnc(C)o4)C3(C)C)CC[C@]3(C)[C@H](CC[C@@H]4[C@@]5(C)CC[C@H](OC(=O)[C@H]6C[C@@H](C(=O)O)C6(C)C)C(C)(C)[C@@H]5CC[C@]43C)[C@@H]12` [Example 21, (1R,3S)-3-(((1R,3aS,5aR,5bR,7aR,9S,11aR,11bR,13aR,13bR)-3a-((1R,3S)-2,2-dimethyl-3-(5-methyl-1,3,4-oxadiazol-2-yl)cyclobutylcarbamoyl)-5a,5b,8,8,11a-pentamethyl-1-(prop-1-en-2-yl)icosahydro-1H-cyclopenta[a]chrysen-9-yloxy)carbonyl)-2,2-dimethylcyclobutane carboxylicacid], for which, in series [1], the viability at 100 nM was 94% and the viability at 1000 nM is 96%. Further, in series [2] (setting [3]), the Tlast was determined as 24 h, the total exposure AUC(0-inf) stood at 185 µg·h/mL, the Cmax stood at 5900 ng/mL and the Tmax was found to be 7 h. Further, the AUC(0-t) in series [2] (setting [4]) amounted to 95500 ng·h/mL. Also, in the series on HIV-1 strain 92HT599, the inhibition at 0.1 µM is 100% and the inhibition at 1 µM was 100%.

For the compound `CC(C)(CC(=O)O[C@H]1CC[C@]2(C)[C@H]3CC[C@@H]4[C@H]5[C@H](C6(C)CC6)CC[C@]5(C(=O)N5CCOCC5)CC[C@@]4(C)[C@]3(C)CC[C@H]2C1(C)C)C(=O)O` [Example 27, 2,2-dimethyl-4-oxo-4-(((1R,3aS,5aR,5bR,7aR,9S,11aR,1bR,13aR,13bR)-5a,5b,8,8,11a-pentamethyl-1-(1-methylcyclopropyl)-3a-(morpholine-4-carbonyl)icosahydro-1H-cyclopenta[a]chrysen-9-yl)oxy)butanoic acid], in series [1], the viability at 100 nM amounted to 100% and the viability at 1000 nM stood at 94%. Also, in series [2] (setting [3]), the Tlast came out at 48 h, the AUC(0-inf) is 106 µg·h/mL, the concentration peaked (Cmax) at 7000 ng/mL and the Tmax is 3.5 h. Further, the AUC(0-t) in series [2] (setting [4]) amounted to 101000 ng·h/mL. In the series on HIV-1 strain 92HT599, the inhibition at 0.1 µM is 94% and the inhibition at 1 µM was 88%.

In series [1], `C=C(C)[C@@H]1CC[C@]2(C(=O)N[C@@H]3C[C@H](C(=O)N4CCCCC4)C3(C)C)CC[C@]3(C)[C@H](CC[C@@H]4[C@@]5(C)CC[C@H](OC(=O)[C@H]6[C@@H](CC(=O)O)C6(C)C)C(C)(C)[C@@H]5CC[C@]43C)[C@@H]12` [Example 18, 2-((1R,3S)-3-(((1R,3aS,5aR,5bR,7aR,9S,11aR,11bR,13aR,13bR)-3a-((1R,3S)-2,2-dimethyl-3-(piperidine-1-carbonyl)cyclobutylcarbamoyl)-5a,5b,8,8,11a-pentamethyl-1-(prop-1-en-2-yl)icosahydro-1H-cyclopenta[a]chrysen-9-yloxy)carbonyl)-2,2-dimethylcyclopropyl)acetic acid] displayed a viability at 100 nM of 82% and a viability at 1000 nM of 77%. In series [2] (setting [5]), the Cmax amounted to 4230 ng/mL and the Tmax was 2.25 h. In series [2] (setting [6]), the AUC(0-t) is 36600 ng·h/mL. In the series on HIV-1 strain 92HT599, the inhibition at 0.1 µM was 100% and the inhibition at 1 µM is 100%.

In series [1], `CC1([C@@H]2CC[C@]3(C(=O)N4CCN(CCN5CCOCC5)CC4)CC[C@]4(C)[C@H](CC[C@@H]5[C@@]6(C)CC[C@H](OC(=O)[C@H]7C[C@@H](C(=O)O)C7(C)C)C(C)(C)[C@@H]6CC[C@]54C)[C@@H]23)CC1` [Example 32] returned a viability at 100 nM of 100% and a viability at 1000 nM of 95%. Moreover, in series [2] (setting [3]), the Tlast came out at 48 h, the AUC(0-inf) was 240 µg·h/mL, the Cmax came to 9200 ng/mL and the Tmax was 6.5 h. Also, the AUC(0-t) in series [2] (setting [4]) is 214000 ng·h/mL. Further, in the series with HIV-1 strain 92HT599, the inhibition at 0.1 µM was 99% and the inhibition at 1 µM was 99%.

Turning to `CCN1CCN(C(=O)[C@]23CC[C@@H](C4(C)CC4)[C@@H]2[C@H]2CC[C@@H]4[C@@]5(C)CC[C@H](OC(=O)CC(C)(C)C(=O)O)C(C)(C)[C@@H]5CC[C@@]4(C)[C@]2(C)CC3)CC1` [Example 12, 4-((1R,3aS,5aR,5bR,7aR,9S,11aR,11bR,13aR,13bR)-3a-(4-ethylpiperazine-1-carbonyl)-5a,5b,8,8,11a-pentamethyl-1-(1-methylcyclopropyl)icosahydro-1H-cyclopenta[a]chrysen-9-yloxy)-2,2-dimethyl-4-oxobutanoicacid], in series [1], the viability at 100 nM is 100% and the viability at 1000 nM is 99%. In series [2] (setting [5]), the peak level (Cmax) was 8160 ng/mL and the Tmax was 4 h. For the same compound, in series [2] (setting [6]), the AUC(0-t) was 201000 ng·h/mL. Moreover, in the series on HIV-1 strain 92HT599, the inhibition at 0.1 µM was 100% and the inhibition at 1 µM is 100%.

Take `CC1([C@@H]2CC[C@]3(C(=O)N[C@@H]4C[C@H](C(=O)N5CCCCC5)C4(C)C)CC[C@]4(C)[C@H](CC[C@@H]5[C@@]6(C)CC[C@H](OC(=O)[C@H]7C[C@@H](C(=O)O)C7(C)C)C(C)(C)[C@@H]6CC[C@]54C)[C@@H]23)CC1` [Example 23, (1R,3S)-3-((((1R,3aS,5aR,5bR,7aR,9S,11aR,11bR,13aR,13bR)-3a-(((1R,3S)-2,2-dimethyl-3-(piperidine-1-carbonyl)cyclobutyl)carbamoyl)-5a,5b,8,8,11a-pentamethyl-1-(1-methylcyclopropyl)icosahydro-1H-cyclopenta[a]chrysen-9-yl)oxy)carbonyl)-2,2-dimethylcyclobutane-1-carboxylic acid]: in series [1], the viability at 100 nM stood at 100% and the viability at 1000 nM was determined as 93%. In addition, in series [2] (setting [3]), the Tlast came out at 48 h, the AUC(0-inf) was determined as 628 µg·h/mL, the peak level (Cmax) was 11000 ng/mL and the Tmax is 4.5 h. In series [2] (setting [4]), the AUC(0-t) was 324000 ng·h/mL. Also, in the series on HIV-1 strain 92HT599, the inhibition at 0.1 µM was 100% and the inhibition at 1 µM was 100%.

In series [1], `[2H]C([2H])([2H])C(CC(=O)O[C@H]1CC[C@]2(C)[C@H]3CC[C@@H]4[C@H]5[C@H](C(=C)C)CC[C@]5(C(=O)N[C@@H]5C[C@H](C(=O)N6CCCCC6)C5(C)C)CC[C@@]4(C)[C@]3(C)CC[C@H]2C1(C)C)(C(=O)O)C([2H])([2H])[2H]` [Example 24, 4-(((1R,3aS,5aR,5bR,7aR,9S,11aR,11bR,13aR,13bR)-3a-(((1R,3S)-2,2-dimethyl-3-(piperidine-1-carbonyl)cyclobutyl)carbamoyl)-5a,5b,8,8,11a-pentamethyl-1-(prop-1-en-2-yl)icosahydro-1H-cyclopenta[a]chrysen-9-yl)oxy)-2,2-bis(methyl-d3)-4-oxobutanoic acid] returned a viability at 100 nM of 83% and a viability at 1000 nM of 99%. Moreover, in series [2] (setting [3]), the Tlast came out at 24 h, the area under the curve AUC(0-inf) stood at 123 µg·h/mL, the Cmax came out at 9100 ng/mL and the Tmax worked out at 2 h. For the same compound, the AUC(0-t) in series [2] (setting [4]) was found to be 70000 ng·h/mL. For the same compound, in the series with HIV-1 strain 92HT599, the inhibition at 0.1 µM was 100% and the inhibition at 1 µM is 100%.

In series [1], `Cc1nnc([C@H]2C[C@@H](NC(=O)[C@]34CC[C@@H](C5(C)CC5)[C@@H]3[C@H]3CC[C@@H]5[C@@]6(C)CC[C@H](OC(=O)[C@H]7C[C@@H](C(=O)O)C7(C)C)C(C)(C)[C@@H]6CC[C@@]5(C)[C@]3(C)CC4)C2(C)C)o1` [Example 17, (1R,3S)-3-(((1R,3aS,5aR,5bR,7aR,9S,11aR,11bR,13aR,13bR)-3a-((1R,3S)-2,2-dimethyl-3-(5-methyl-1,3,4-oxadiazol-2-yl)cyclobutylcarbamoyl)-5a,5b,8,8,11a-pentamethyl-1-(1-methylcyclopropyl)icosahydro-1H-cyclopenta[a]chrysen-9-yloxy)carbonyl)-2,2-dimethyl cyclobutanecarboxylicacid] registered a viability at 100 nM of 77% and a viability at 1000 nM of 89%. Also, in series [2] (setting [5]), the highest level (Cmax) was 5940 ng/mL and the Tmax stood at 4.5 h. Besides, in series [2] (setting [6]), the AUC(0-t) amounted to 88300 ng·h/mL. Besides, in the series with HIV-1 strain 92HT599, the inhibition at 0.1 µM was 100% and the inhibition at 1 µM was 100%.

In series [1], `CC(C)(CC(=O)O[C@H]1CC[C@]2(C)[C@H]3CC[C@@H]4[C@H]5[C@H]([C@@](C)(O)CO)CC[C@]5(C(=O)N[C@@H]5C[C@H](C(=O)N6CCCCC6)C5(C)C)CC[C@@]4(C)[C@]3(C)CC[C@H]2C1(C)C)C(=O)O` [Example 15, 4-((1R,3aS,5aR,5bR,7aR,9S,11aR,11bR,13aR,13bS)-1-(1,2-dihydroxypropan-2-yl)-3a-((1R,3S)-2,2-dimethyl-3-(piperidine-1-carbonyl)cyclobutylcarbamoyl)-5a,5b,8,8,11a-pentamethylicosahydro-1H-cyclopenta[a]chrysen-9-yloxy)-2,2-dimethyl-4-oxobutanoicacid] came in with a viability at 100 nM of 95% and a viability at 1000 nM of 95%. Moreover, in series [2] (setting [5]), the peak level (Cmax) was 3780 ng/mL and the Tmax stood at 0.63 h. Moreover, the AUC(0-t) in series [2] (setting [6]) was 31400 ng·h/mL. Besides, in the series on HIV-1 strain 92HT599, the inhibition at 0.1 µM is 93% and the inhibition at 1 µM is 97%.

For orientation: viability means a read-out of living cells in per cent, often relative to untreated cells. Higher therefore signals less harm to the cells. The AUC(0-inf) is total exposure, with the tail of the curve extrapolated. The term Cmax denotes the maximum level reached in the sampled fluid or tissue. The term Tmax denotes the time at which the peak concentration occurs. A word on the inhibition: it is the change of the read-out against control, counted positive when it falls.
